Laboratory results from patent publication US20070032533A1, “Nitric oxide enhancing angiotensin II antagonist compounds, compositions and methods of use” (NitroMed, Inc., priority 2005, published 2007).
Where a name gives a salt, the structure may show the parent alone.

What was measured:
[1] = molecular target: T1, Human angiotensin II type 1 receptor (Homo sapiens, UniProt P30556); assay: Human angiotensin II type 1 receptor binding assay; settings: for inhibition at 0.1 µM / AT1 Binding Human % Inhibition at 100 nM: percent inhibition of control specific binding at 100 nM test compound; for inhibition at 0.1 µM: read-out: AT1 Binding Human % Inhibition at 100 nM
T1 construct: Cerep, Seattle, Wash; (contract laboratory that ran the assay)
T1 sequence (P30556 1-359): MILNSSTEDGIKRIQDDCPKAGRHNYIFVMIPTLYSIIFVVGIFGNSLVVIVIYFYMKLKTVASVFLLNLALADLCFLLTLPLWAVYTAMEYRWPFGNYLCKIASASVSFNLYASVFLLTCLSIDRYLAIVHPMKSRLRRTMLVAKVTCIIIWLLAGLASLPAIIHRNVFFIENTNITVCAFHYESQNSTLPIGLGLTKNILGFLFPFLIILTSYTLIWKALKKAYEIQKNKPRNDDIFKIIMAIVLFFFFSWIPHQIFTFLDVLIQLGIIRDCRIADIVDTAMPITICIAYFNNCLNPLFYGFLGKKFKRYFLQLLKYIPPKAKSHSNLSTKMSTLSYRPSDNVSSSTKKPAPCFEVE
Experimental: Human Angiotensin II Type 1 Receptor Binding Assay
The Human angiotensin II type 1 receptor binding assay was performed by Cerep, Seattle, Wash., using the procedure described in Bergsma et al; Biochem. Biophys. Res. Commun., 183: 989-995 (1992).

| Compound | melting point | IC50 ([1]; human AT1 receptor binding, performed by Cerep) [nM] | inhibition at 0.1 µM [1] [%] | AT1 Binding Human % Inhibition at 100 nM [1] [%] |
| --- | --- | --- | --- | --- |
| CCOc1nc2cccc(CO[N+](=O)[O-])c2n1Cc1ccc(-c2ccccc2-c2nnn[nH]2)cc1 (as salt: nitrate) [Example 14e, 1H-benzimidazole-7-methanol, 2-ethoxy-1-[[2′-(1H-tetrazol-5-yl)[1,1′-biphenyl]-4-yl]methyl]-, nitrate (ester)] | 126 °C (dec.) |  |  |  |
| CC(C)[C@@H](C(=O)O)N(Cc1ccc(-c2ccccc2-c2nnn[nH]2)cc1)C(=O)CCCCO[N+](=O)[O-] [Example 1g, L-valine, N-[5-(nitrooxy)-1-oxopentyl]-N-[[2′-(1H-tetrazol-5-yl)[1,1′-biphenyl]-4-yl]methyl]] | 108 to 111 °C | 18 | 86 |  |
| CC(C)[C@@H](C(=O)OC(C)(C)C)N(Cc1ccc(-c2ccccc2-c2nnn(C(c3ccccc3)(c3ccccc3)c3ccccc3)n2)cc1)C(=O)CCCCCO[N+](=O)[O-] [Example 2f, L-valine, N-[6-(nitrooxy)-1-oxohexyl]-N-[[2′-[2-(triphenylmethyl)-2H-tetrazol-5-yl][1,1′-biphenyl]-4-yl]methyl]-, 1,1-dimethylethyl ester] |  |  | 12 |  |
| CC(C)[C@@H](C(=O)O)N(Cc1ccc(-c2ccccc2-c2nnn[nH]2)cc1)C(=O)CCCCCO[N+](=O)[O-] [Example 2g, L-valine, N-[6-(nitrooxy)-1-oxohexyl]-N-[[2′-(1H-tetrazol-5-yl)[1,1′-biphenyl]-4-yl]methyl]] | 196 °C (dec.) |  |  |  |
| CC(C)[C@@H](C(=O)O)N(Cc1ccc(-c2ccccc2-c2nnn[nH]2)cc1)C(=O)c1cccc(CO[N+](=O)[O-])c1 [Example 3b, L-valine, N-[3-[(nitrooxy)methyl]benzoyl]-N-[[2′-(1H-tetrazol-5-yl)[1,1′-biphenyl]-4-yl]methyl]] | 151 °C (dec.) |  | 5 |  |
| CC(C)[C@@H](C(=O)O)N(Cc1ccc(-c2ccccc2-c2nnn[nH]2)cc1)C(=O)CCC(CO[N+](=O)[O-])O[N+](=O)[O-] (stereo partly drawn) [Example 4b, L-valine, N-[4,5-bis(nitrooxy)-1-oxopentyl]-N-[[2′-(1H-tetrazol-5-yl)[1,1′-biphenyl]-4-yl]methyl]] | 182 °C (dec.) |  | 2 |  |
| CC(C)[C@@H](C(=O)O)N(Cc1ccc(-c2ccccc2-c2nnn[nH]2)cc1)C(=O)CCCC(CO[N+](=O)[O-])O[N+](=O)[O-] (stereo partly drawn) [Example 5b, L-valine, N-[5,6-bis(nitrooxy)-1-oxohexyl]-N-[[2′-(1H-tetrazol-5-yl)[1,1′-biphenyl]-4-yl]methyl]] | 192 °C (dec.) |  | -1 |  |
| CC(C)[C@@H](C(=O)N(C)C)N(Cc1ccc(-c2ccccc2-c2nnn[nH]2)cc1)C(=O)CCCCO[N+](=O)[O-] [Example 6, Pentanamide, N-[(1S)-1-[(dimethylamino)carbonyl]-2-methylpropyl]-5 (nitrooxy)-N-[[2′-(1H-tetrazol-5-yl)[1,1′-biphenyl]-4-yl]methyl]] | 75 to 78 °C |  | 83 |  |
| CCCCC(=O)N(CCCO[N+](=O)[O-])Cc1ccc(-c2ccccc2-c2nnn[nH]2)cc1 [Example 7d, Pentanamide, N-[3-(nitrooxy)propyl]-N-[[2′-(1H-tetrazol-5-yl)[1,1′-biphenyl]-4-yl]methyl]] | 54 to 59 °C |  | 21 |  |
| CCCCC(=O)N(Cc1ccc(-c2ccccc2-c2nnn[nH]2)cc1)[C@H](C(=O)N(CCO[N+](=O)[O-])CCO[N+](=O)[O-])C(C)C [Example 8] | 87 to 90 °C |  | 4 |  |
| CCCCC(=O)N(Cc1ccc(-c2ccccc2-c2nnn[nH]2)cc1)[C@H](C(=O)N(C)CCO[N+](=O)[O-])C(C)C [Example 9] | 86 to 89 °C |  | 8 |  |
| CCCCC(=O)N(Cc1ccc(-c2ccccc2-c2nnn[nH]2)cc1)[C@H](C(=O)N1CCC(CO[N+](=O)[O-])CC1)C(C)C [Example 10, Pentanamide, N-[(1S)-2-methyl-1-[[4-[(nitrooxy)methyl]-1-piperidinyl]carbonyl]propyl]-N-[[2′-(1H-tetrazol-5-yl) [1,1′-biphenyl]-4-yl]methyl]] | 86 to 88 °C |  | 22 |  |
| CCc1nc2c(C)cc(C)nc2n1Cc1ccc(-c2ccccc2S(=O)(=O)NC(=O)C2CC(C)(C)N([O])C(C)(C)C2)cc1 [Example 11, 1-Piperidinyloxy, 4-[[[[4′-[(2-ethyl-5,7-dimethyl-3H-imidazo[4,5-b]pyridin-3-yl)methyl][1,1′-biphenyl]-2-yl]sulfonyl]amino]carbonyl]-2,2,6,6-tetramethyl] |  |  |  | 88 |
| CCc1nc2c(C)cc(C)nc2n1Cc1ccc(-c2ccccc2S(=O)(=O)NC(=O)C2=CC(C)(C)N([O])C2(C)C)cc1 [Example 12, 1H-Pyrrol-1-yloxy, 3-[[[[4′-[(2-ethyl-5,7-dimethyl-3H-imidazo[4,5-b]pyridin-3-yl)methyl][1,1′-biphenyl]-2-yl]sulfonyl]amino]carbonyl]-2,5-dihydro-2,2,5,5-tetramethyl] |  |  |  | 78 |
| CCc1nc2c(C)cc(C)nc2n1Cc1ccc(-c2ccccc2S(=O)(=O)NC(=O)c2cccc(CO[N+](=O)[O-])c2)cc1 [Example 13, Benzamide, N-[[4′-[(2-ethyl-5,7-dimethyl-3H-imidazo[4,5-b]pyridin-3-yl)methyl][1,1′-biphenyl]-2-yl]sulfonyl]-3-[(nitrooxy)methyl]] | 123 °C (dec.) |  | 73 |  |
| CCc1nc2c(C)cc(C)nc2n1Cc1ccc(-c2ccccc2S(=O)(=O)NC(=O)c2ccccc2)cc1 [MK 996, reference compound] |  |  |  | 91 |
| CCCCC(=O)N(Cc1ccc(-c2ccccc2-c2nnn[nH]2)cc1)[C@H](C(=O)O)C(C)C [Valsartan, reference compound] |  |  | 94 |  |
